“And” between values parts separate entries of the source, which are not always exact repeats. Equal entries are not always repeated.
Assays:
[1] = Light exposure of dried metaflumizone formulation with UV absorber (Atlas Suntest, seven days), residual content by UPLC; assay type: physicochemical; details: 100 g/l metaflumizone, 40 g/l UV absorber, exposed to light seven days, unexposed blank = 100%
Description: A formulation comprising 100 g/l of metaflumizone and 40 g/l of UV absorber was prepared by two different methods: a) Wet grinding with subsequent addition of UV absorber as in Example 9. b) Wet grinding with UV absorber as in Example 8. About 20 mg of the mixture prepared in this way were applied to a microscope slide, allowed to dry on for 30 minutes and exposed to light continuously for seven days (Atlas Suntest CRT plus, “Outdoor” setting, exposure to light corresponds to the same spectrum and intensity as normal sunlight at midday in summer). After the exposure time, the samples were dissolved in dimethylsulfoxide. […] For comparison, a sample without UV absorber was also allowed to run (reference) in each exposure series. Evaluation: 2 samples were dissolved again as blank samples immediately after the drying on, without exposure to light, and the content of metaflumizone was determined. The resulting mean was set at 100% and the remaining samples were standardized against this.

[2] = Determination of the surface tension of the UV absorbers; assay type: physicochemical; details: 25° C.; UV absorber concentrations from about 1 mg/l to 5,000 mg/l; water to air
Description: The surface tension (ST) of the UV absorbers was determined at 25° C. at concentrations of the UV absorber of from about 1 mg/l to 5,000 mg/l. The ST of water to air is, for comparison, 72.4 mN/m, the ST of commercial surfactants is about 30-35 mN/m.

[3] = formulation by method a) (wet grinding, subsequent addition of UV absorber)

| Compound | Residual content of metaflumizone (%) [1, 3] | ST [mN/m] (surface tension) [2] | Residual content of metaflumizone (%) ([1]; formulation by method b) (wet grinding with UV absorber)) |
| --- | --- | --- | --- |
| 2,4,6-trianilino-p-(carboxy-[Pluriol A500E]-yl)-1,3,5-triazine [Example 4B] | 77.5% | – | – |
| 2-cyano-3,3-diphenyl-acrylic acid [Pluriol A500E] ester [Example 2B] | 76.7% | – | – |
| 2-cyano-3,3-diphenylacrylic acid [EO-tridecanol]ester [Example 2D] | – | 33.9 mN/m | – |
| 3,6,9,12-tetraoxatridecylcinnamic acid amide [Example 6A] | 74.7% | – | – |
| COCCOCCOCCOCCOCCOCCOCCOC(=O)C(C#N)=C(c1ccccc1)c1ccccc1 [Example 2A, 2-cyano-3,3-diphenyl-acrylic acid [Pluriol A350E] ester] | 87.1% | 43.1 mN/m | – |
| COCCOCCOCCOCCOCCOCCOCCOC(=O)COc1ccc(C(=O)c2ccccc2)c(O)c1 [Example 3B, (4-benzoyl-3-hydroxy-phenoxy)-acetic acid [Pluriol A350E] ester] | 85.9% and 83.2% | 45.7 mN/m | 82.8% |
| COCCOCCOCCOCCOC(=O)C=Cc1ccccc1 [Example 6B, cinnamic acid 3,6,9,12-tetraoxatridecyl ester] | 66.5% | – | – |
| p-Aminobenzoic acid ethoxylate [Uvinul P25, reference compound] | 53.3% | – | – |

Source: patent publication US20110237665A1, “Agrochemical Composition Comprising Pesticide and UV Absorber” (BASF SE, priority 2008, published 2011)
